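Interpolation was linear, between the two tested concentrations surrounding the appropriate level; five concentrations were tested over 48 hours in 96-well plates. GI50 is the concentration that inhibits growth by half.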 The source made the active and inactive calls. No stated cut-off is given here; in the data, active = GI50 up to about 1.1 µM and inactive = higher.
Key:
Experiment in all cases: growth of human tumour cells (NCI), 48 h
HCT-15 = tested on: HCT-15
K562 = tested on: K562
NCI-H460 = tested on: NCI-H460
LOX IMVI = tested on: LOX IMVI
M14 = tested on: M14
HT-29 = tested on: HT-29
UACC-62 = tested on: UACC-62
NCI-H23 = tested on: NCI-H23
MOLT-4 = tested on: MOLT-4
SK-MEL-28 = tested on: SK-MEL-28
TK-10 = tested on: TK-10
SF-295 = tested on: SF-295
HOP-92 = tested on: HOP-92
PC-3 = tested on: PC-3
RXF 393 = tested on: RXF 393
HCC 2998 = tested on: HCC 2998
786-0 = tested on: 786-0
NCI-H226 = tested on: NCI-H226
NCI-H522 = tested on: NCI-H522
A498 = tested on: A498

SMILES | GI50 (HCT-15) [µM] | GI50 (K562) | GI50 (NCI-H460) | GI50 (LOX IMVI) | GI50 (M14) | GI50 (HT-29) | GI50 (UACC-62) | GI50 (NCI-H23) | GI50 (MOLT-4) | GI50 (SK-MEL-28) | GI50 (TK-10) | GI50 (SF-295) | GI50 (HOP-92) | GI50 (PC-3) | GI50 (RXF 393) | GI50 (HCC 2998) | GI50 (786-0) | GI50 (NCI-H226) | GI50 (NCI-H522) | GI50 (A498)
N#Cc1c(-c2ccc(Cl)cc2)cc(-c2ccc(Nc3ccnc4cc(C(F)(F)F)ccc34)cc2)[nH]c1=O | > 100 | 3.52 µM (inactive) | > 100 µM (inactive) | 2.94 µM (inactive) | 4.31 µM (inactive) | 7.13 µM (inactive) | 21.9 µM (inactive) | > 45 µM (inactive) | 4.05 µM (inactive) | 8.49 µM (inactive) | 24.4 µM (inactive) | 36.1 µM (inactive) | 17.1 µM (inactive) | 69.2 µM (inactive) | 8.93 µM (inactive) | > 100 µM (inactive) | 12.4 µM (inactive) | > 92.3 µM (inactive) | 50 µM (inactive) | > 51.8 µM (inactive)
COc1ccc(\N=C/C=C/C(=C/COC(C)=O)OC(C)=O)cc1 | 36.6 | 4.89 µM (inactive) | 34.5 µM (inactive) | 25.6 µM (inactive) | 32.7 µM (inactive) | 23.2 µM (inactive) | 37.1 µM (inactive) | 16.8 µM (inactive) | 68.1 µM (inactive) | 26.9 µM (inactive) | 37.2 µM (inactive) | 58.5 µM (inactive) | 20.5 µM (inactive) | 36.4 µM (inactive) | 21.4 µM (inactive) | > 100 µM (inactive) | 23 µM (inactive) | > 100 µM (inactive) | 6.62 µM (inactive) | 32.3 µM (inactive)
O=C([O-])C1([n+]2c(-c3ccccc3)cc(-c3ccccc3)cc2-c2ccccc2)CC1 | > 100 | 27.5 µM (inactive) | 74.5 µM (inactive) | 82.6 µM (inactive) | 43.6 µM (inactive) | 48.8 µM (inactive) | 21.5 µM (inactive) | 86.9 µM (inactive) | 65.6 µM (inactive) | > 100 µM (inactive) | > 100 µM (inactive) | > 100 µM (inactive) | 19.8 µM (inactive) | 80.4 µM (inactive) | > 100 µM (inactive) | 29.3 µM (inactive) | 57.1 µM (inactive) | > 100 µM (inactive) | 54.7 µM (inactive) | > 100 µM (inactive)
Cc1cc(-c2nc3ccccc3s2)ccc1N | 42.3 | 38.8 µM (inactive) | 27.2 µM (inactive) | 31.6 µM (inactive) | 36.8 µM (inactive) | 40.3 µM (inactive) | 46.1 µM (inactive) | 40.4 µM (inactive) | 13.5 µM (inactive) | > 76.6 µM (inactive) | 0.0302 µM (active) | 43 µM (inactive) | > 100 µM (inactive) | 26 µM (inactive) | 50.8 µM (inactive) | 5.98 µM (inactive) | 57.8 µM (inactive) | 8.67 µM (inactive) | 18.5 µM (inactive) | 4.34 µM (inactive)
O=c1[nH]c2ccccc2nc1CBr | 8.95 | 2.24 µM (inactive) | 11.4 µM (inactive) | 0.912 µM (active) | 10.6 µM (inactive) | 6.24 µM (inactive) | 8.11 µM (inactive) | 14.6 µM (inactive) | 1.87 µM (inactive) | 12.1 µM (inactive) | 13.8 µM (inactive) | 12.6 µM (inactive) | 3.39 µM (inactive) | 12.6 µM (inactive) | 1.82 µM (inactive) | 20.6 µM (inactive) | 2.02 µM (inactive) | 15.8 µM (inactive) | 0.638 µM (active) | 21.8 µM (inactive)
